Like-named read-outs stand apart in the source and are kept apart here. Bounds are passed on as bounds.

The text below walks through data of patent US11780841B2, “3,6-methano-1H-pyrrolo[3,2-b]pyridine and 3,6-methano-1H-pyrrolo[3,2-c]pyridine compounds and medicaments using same” (priority 2018, dated 2023).

The assay concerns recombinant rabies virus 1088 strain expressing Gaussia Luciferase (GLuc) (1088/GLuc). In kind it is cell-based.

In the case of `CC(C)CNC(=O)[C@]12NC[C@@H]3C[C@H]1CN(CC(C)C)[C@H]2[C@@H]3Cc1ccccc1` (relative stereo) [IB-3], the IC50 is 10 to 30 µM (read-out: Anti-rabies activity) and 19.6 µM (read-out: IC50).

With `CC(C)CNC(=O)[C@]12NC[C@@H]3C[C@H]1CN(Cc1ccccc1)[C@H]2[C@@H]3CC(C)C` (relative stereo) [IB-4], the IC50 (read-out: Anti-rabies activity) lay in the range of 10 to 30 µM and the IC50 (read-out: IC50) worked out at 19.2 µM.

Regarding `CC(C)C[C@@H]1[C@@H]2CN[C@@]3(C(=O)NCc4ccccc4)[C@@H](C2)CN(CC(C)C)[C@@H]13` (relative stereo) [IB-5], the IC50 is 10 to 30 µM (read-out: Anti-rabies activity) and 18.2 µM (read-out: IC50).

As for `CC(C)CCN1C[C@@H]2C[C@H]3CN[C@]2(C(=O)NCc2ccccc2)[C@@H]1[C@@H]3Cc1ccccc1` (relative stereo) [IB-9], the IC50 is 10 to 30 µM (read-out: Anti-rabies activity) and 17 µM (read-out: IC50).

Consider `CC(C)C[C@@H]1[C@@H]2CN[C@@]3(C(=O)NCCc4ccccc4)[C@@H](C2)CN(Cc2ccccc2)[C@@H]13` (relative stereo) [IB-12], for which the IC50 (read-out: Anti-rabies activity) lay within 10 to 30 µM and the IC50 (read-out: IC50) turned out to be 15.5 µM.

Regarding `Cc1cccc(C[C@@H]2[C@@H]3CN[C@@]4(C(=O)NCc5ccccc5)[C@@H](C3)CN(CC(C)C)[C@@H]24)c1` (relative stereo) [IB-13], the IC50 was 10 to 30 µM (read-out: Anti-rabies activity) and 14.3 µM (read-out: IC50).

Consider `Cc1cccc(CNC(=O)[C@]23NC[C@@H]4C[C@H]2CN(CC(C)C)[C@H]3[C@@H]4Cc2ccccc2)c1` (relative stereo) [IB-15], for which the IC50 is 10 to 30 µM (read-out: Anti-rabies activity) and 15.9 µM (read-out: IC50).

Consider `O=C(NCc1ccccc1)[C@]12NC[C@H]3C[C@H]1CN(Cc1cccc4ccccc14)[C@H]2[C@@H]3Cc1ccccc1` (relative stereo) [IB-42, (3S*,3aS*,6S*,7R*,7aS*)-N,7-dibenzyl-1-(naphthalen-1-ylmethyl)octahydro-3aH-3,6-methanopyrrolo[3,2-b]pyridine-3a-carboxamide], for which the IC50 (read-out: Anti-rabies activity) lay within 10 to 30 µM.

Turning to `CC(C)C[C@@H]1[C@H]2CN[C@@]3(C(=O)NCc4cccc5ccccc45)[C@@H](C2)CN(CC(N)=O)[C@@H]13` (relative stereo) [IB-81], the IC50 (read-out: Anti-rabies activity) fell in the range of 10 to 30 µM.

`NC(=O)CN1C[C@@H]2C[C@@H]3CN[C@]2(C(=O)NCc2cccc4ccccc24)[C@@H]1[C@@H]3Cc1ccccc1` (relative stereo) [IB-82]: the IC50 (read-out: Anti-rabies activity) is 10 to 30 µM.

For `NC(=O)CN1C[C@@H]2C[C@@H]3CN[C@]2(C(=O)NCc2cccc4ccccc24)[C@@H]1[C@@H]3Cc1ccc(O)cc1` (relative stereo) [IB-83], the IC50 (read-out: Anti-rabies activity) is 10 to 30 µM.

Regarding `CC(C)C[C@@H]1[C@@H]2CN[C@@]3(C(=O)NCc4cccc5ccccc45)[C@@H](C2)CN(CCCNC(=N)N)[C@@H]13` (relative stereo) [IB-164, (3S*,3aS*,6R*,7R*,7aS*)-1-(3-guanidinopropyl)-7-isobutyl-N-(naphthalen-1-ylmethyl)octahydro-3aH-3,6-methanopyrrolo[3,2-b]pyridine-3a-carboxamide], for the setting “read-out: Anti-rabies activity”, the IC50 is < 5 µM.

Turning to `CCN1C[C@H]2C[C@H]3CN(Cc4ccc(C)cc4)[C@@H]([C@@H]2CC(C)C)[C@]31C(=O)NCc1ccccc1` (relative stereo) [IB-880], the IC50 (read-out: Anti-rabies activity) was < 5 µM.

Turning to `Cc1ccc(CN2C[C@@H]3C[C@@H]4CN(CC(C)C)[C@]3(C(=O)NCc3ccccc3)[C@@H]2[C@@H]4CC(C)C)cc1` (relative stereo) [IB-881], for the setting “read-out: Anti-rabies activity”, the IC50 is < 5 µM.

For the compound `Cc1ccc(CN2C[C@@H]3C[C@@H]4CN(C(=O)CC(C)C)[C@]3(C(=O)NCc3ccccc3)[C@@H]2[C@@H]4CC(C)C)cc1` (relative stereo) [IB-883], the IC50 (read-out: Anti-rabies activity) is < 5 µM.

Take `COC(=O)N1C[C@H]2C[C@H]3CN(Cc4ccc(C)cc4)[C@@H]([C@@H]2CC(C)C)[C@]31C(=O)NCc1ccccc1` (relative stereo) [IB-885]: the IC50 (read-out: Anti-rabies activity) fell in the range of 5 to 10 µM.

Turning to `Cc1ccc(CN2C[C@@H]3C[C@@H]4CN(C(=O)OCC(C)C)[C@]3(C(=O)NCc3ccccc3)[C@@H]2[C@@H]4CC(C)C)cc1` (relative stereo) [IB-886], where the note is “read-out: Anti-rabies activity”, the IC50 was 5 to 10 µM.

As to `Cc1ccc(CN2C[C@@H]3C[C@@H]4CN(C(N)=O)[C@]3(C(=O)NCc3ccccc3)[C@@H]2[C@@H]4CC(C)C)cc1` (relative stereo) [IB-888], the IC50 (read-out: Anti-rabies activity) lay in the range of 10 to 30 µM.

For the compound `CC(C)C[C@@H]1[C@H]2CN[C@@]3(C(=O)NCc4cccc(O)c4)[C@@H](C2)CN(Cc2ccc(N(C)C)cc2)[C@@H]13` (relative stereo) [IB-891], the IC50 (read-out: Anti-rabies activity) was in the range of 10 to 30 µM.

With `CC(C)C[C@@H]1[C@H]2CN[C@@]3(C(=O)NCc4ccc(O)cc4)[C@@H](C2)CN(Cc2ccc(N(C)C)cc2)[C@@H]13` (relative stereo) [IB-892], the IC50 (read-out: Anti-rabies activity) lay in the range of 10 to 30 µM.

As to `CC(C)CN1C[C@H]2C[C@]3(C(=O)NCc4ccccc4)NC[C@H]2[C@H]1[C@H]3Cc1ccccc1` (relative stereo) [IF-1, (3S*,3aS*,6S*,7R*,7aS*)-N,7-dibenzyl-1-isobutyloctahydro-6H-3,6-methanopyrrolo[3,2-c]pyridine-6-carboxamide], the IC50 was 10 to 30 µM (read-out: Anti-rabies activity) and 12.6 µM (read-out: IC50).

With `CC(C)CNC(=O)[C@@]12C[C@@H]3CN(Cc4ccccc4)[C@@H]([C@@H]3CN1)[C@H]2Cc1ccccc1` (relative stereo) [IF-6], the IC50 (read-out: Anti-rabies activity) is 10 to 30 µM and the IC50 (read-out: IC50) was 16.3 µM.

Consider `CC(C)C[C@@H]1[C@@H]2[C@@H]3CN[C@@]1(C(=O)NCc1ccccc1)C[C@@H]3CN2Cc1ccccc1` (relative stereo) [IF-7], for which the IC50 reads like this: (read-out: Anti-rabies activity) 5 to 10 µM; (read-out: IC50) 8.5 µM.

Take `CC(C)CCN1C[C@H]2C[C@]3(C(=O)NCc4ccccc4)NC[C@H]2[C@H]1[C@H]3Cc1ccccc1` (relative stereo) [IF-9]: the IC50 is, setting by setting: (read-out: Anti-rabies activity) 10 to 30 µM; (read-out: IC50) 15.6 µM.

Consider `CC(C)CN1C[C@H]2C[C@]3(C(=O)NCc4ccccc4)NC[C@H]2[C@H]1[C@H]3CCc1ccccc1` (relative stereo) [IF-11], for which the IC50 is, setting by setting: (read-out: Anti-rabies activity) 10 to 30 µM; (read-out: IC50) 17.5 µM.

As for `Cc1cccc(C[C@@H]2[C@@H]3[C@@H]4CN[C@@]2(C(=O)NCc2ccccc2)C[C@@H]4CN3CC(C)C)c1` (relative stereo) [IF-13], the IC50 was 10 to 30 µM (read-out: Anti-rabies activity) and 13.1 µM (read-out: IC50).

As to `Cc1ccc(C[C@@H]2[C@@H]3[C@@H]4CN[C@@]2(C(=O)NCc2ccccc2)C[C@@H]4CN3CC(C)C)cc1` (relative stereo) [IF-14], the IC50 was 10 to 30 µM (read-out: Anti-rabies activity) and 14.1 µM (read-out: IC50).

In the case of `Cc1cccc(CNC(=O)[C@@]23C[C@@H]4CN(CC(C)C)[C@@H]([C@@H]4CN2)[C@H]3Cc2ccccc2)c1` (relative stereo) [IF-15], the IC50 runs as follows: (read-out: Anti-rabies activity) 10 to 30 µM; (read-out: IC50) 17.1 µM.

Take `CC(C)C[C@@H]1[C@@H]2[C@@H]3CN[C@@]1(C(=O)NCc1ccc(Cl)c(Cl)c1)C[C@@H]3CN2Cc1ccccc1` (relative stereo) [IF-20]: the IC50 is, setting by setting: (read-out: Anti-rabies activity) 10 to 30 µM; (read-out: IC50) 11.6 µM.

With `CC(C)CN1C[C@H]2C[C@]3(C(=O)NCc4ccccc4)NC[C@H]2[C@H]1[C@H]3CC1CCCCC1` (relative stereo) [IF-38], the IC50 (read-out: Anti-rabies activity) fell in the range of 10 to 30 µM.

With `O=C(NCc1ccccc1)[C@@]12C[C@@H]3CN(Cc4cccc5ccccc45)[C@@H]([C@@H]3CN1)[C@H]2Cc1ccccc1` (relative stereo) [IF-42], the IC50 (read-out: Anti-rabies activity) fell in the range of 10 to 30 µM.

On to `CCC1N[C@@]2(C(=O)NCc3ccccc3)C[C@@H]3CN(CC(C)C)[C@@H]([C@H]13)[C@H]2Cc1ccccc1` (relative stereo) [IF-69], for which the IC50 reads like this: (read-out: Anti-rabies activity) 10 to 30 µM; (read-out: IC50) 16.5 µM.
